Tested on: AA-induced platelet aggregation
Test: Inhibitory effect on AA-induced platelet aggregation in rabbits in vitro
Assay type: cell-based, rabbit
Conditions: 1*10^−4 M; text conclusion (2)
Protocol: Several experimental groups were established, including a blank control group, an AA model control group, and various test compounds. Each test compound had three concentration groups: 10^−3 M, 10^−4 M, and 10^−5 M.
Rabbits were anesthetized with a 20% urethane solution (5 mL/kg body weight) through intraperitoneal injection. After being fixed in a supine position, the skin of the neck was cut about 6 cm, bluntly separated with a hemostat, and the trachea was exposed after the common carotid artery was separated. The distal end of the common carotid artery was ligated with a fine thread, and the proximal end was clamped with an arterial clamp for vascular intubation. After the intubation was fixed, the artery clamp was opened, and the blood was placed into a blood collection tube containing 3.8% trisodium citrate so that the blood was mixed well with the 3.8% trisodium citrate in a volume ratio of 9:1. […]
First, 300 μL of PPP was added to the test cup and put into the test wells, and calibrated by pressing the “PPP” key. […] The maximum aggregation rate within 4 minutes was measured. […]
The platelet aggregation inhibition rate was calculated with the following formula: […]
All data were expressed as mean standard deviation (mean b SD). […] Intergroup data were analyzed using one-way ANOVA, with P<0.05 considered as statistically significant and P<0.01 considered as highly significant.

SMILES	significant inhibition of AA-induced platelet aggregation
O=C(O)C1CN(c2ccc(Cn3ccnc3)nc2)C1 [Compound 56, 1-(6-((1H-Imidazol-1-yl)methyl)pyridin-3-yl)azetidine-3-carboxylic acid]	can significantly inhibit
O=C(O)/C=C/c1ccc(Cn2cnc(Cl)c2)cn1 [Compound 59, (E)-3-(5-((4-Chloro-1H-imidazol-1-yl)methyl)pyridin-2-yl)acrylic acid]	can significantly inhibit
